This is an account of results in patent US20220168392A1 (priority 2019, published 2022).

For one data set, the system named is healthy men. Nature of the data set: Study NAP1001: single IV dose in healthy men (platelet counts, safety). In kind it is in vivo, human. On the set-up: key to pharmacodynamics (PD) effect class of the dose (beneficial effects on survival): **: large pharmacodynamics (PD) effect; *: modest effect. Particulars: for Humans Max Platelet Ratio: NAP 1001. The procedure: In the FIH, single dose, Phase 1 clinical study NAP1001, 40 healthy men were enrolled, and 30 subjects received a single IV dose of RWJ-800088 as a 5-mg/mL solution in saline (dose range 0.375 to 3 μg/kg); 10 subjects received placebo. […] Thirty-three (83%) of 40 subjects reported at least 1 treatment-emergent adverse event throughout the study. Similar proportions of subjects reported treatment-emergent adverse events following administration of placebo (9 [90%] of 10 subjects) and RWJ-800088 (24 [80%] of 30 subjects). […] Mean platelet counts increased with increasing RWJ-800088 dose compared with placebo from Day 6 onwards, peaking at Days 10 to 12 before gradually returning to baseline by Day 21 (FIG. 19).
The ratio of the maximum platelet counts to the baseline platelet counts following single escalating doses of RWJ-800088 to mice, rats, dogs, rhesus monkeys and human healthy volunteers is shown in Table 5. The dose required to achieve a 2-3.5-fold elevation in humans is ˜100-fold lower compared to mice, ˜1,000-fold lower compared to rats and >10,000-fold lower compared to canines and NHPs. […] The species differences in potency has been described for other TPO mimetics in the literature and is attributed to differences in receptor affinity (Erickson-Miller C L, et al. Discovery and characterization of a selective, nonpeptidyl thrombopoietin receptor agonist. Exp. Hematol. 2005; 33:85-93). […] It is discovered that the dose of RWJ-800088 that produces a survival benefit and protects against vascular and organ injury is the dose that produces a 2-4 fold elevation of platelets (Table 6).

A further data set concerns Mice, ear vein. The experiment in a line: Ear vein model in mice (Table 6). In kind it is in vivo, mouse. The conditions noted are these: 0.3 mg/kg, whole wrapped cell: Reduced white cell adhesion to endothelium and vascular permeability.
Data set [1] deals with CD2F1 mice exposed to TBI (7 Gy). Nature of the data set: Sternal bone marrow histopathology (cellularity, megakaryocytes) after 7 Gy TBI. Format: in vivo, mouse. The conditions noted are these: day 7 post-TBI 7 Gy; 24 h pre-TBI administration. The procedure: Sternal histopathology: Following blood collection, animals were euthanized, and the sterna were collected on 0 (2 h post-TBI), 1, 3, 7, 15 and 30 days post-TBI. The sterna were fixed in a 20:1 volume of fixative (10^0/% buffered formalin) to tissue for at least 24 h and up to 7 days. Fixed sterna were decalcified for 3 h in 12-18% sodium EDTA (pH 7.4-7.5), and specimens were dehydrated using graded ethanol concentrations and embedded in paraffin. Longitudinal 5 μm sections were stained with regular hematoxylin and eosin (H&E) stain. A board-certified veterinary pathologist conducted blinded histopathological evaluation of these samples. The bone marrow was evaluated in situ within sternebrae and graded for total cellularity and megakaryocyte numbers averaged per 10 high power fields at 40× magnification using a BX41 Olympus microscope (Olympus Corporation, Minneapolis, Minn.). […]
Bone marrow cellularity and architecture of CD2F1 mice treated 24 h pre-TBI with vehicle or RWJ-800088 were evaluated by the AFRRI pathologist (FIG. 8). Bone marrow cellularity was determined by evaluating the amount of adipose (fat) tissue versus hematopoietic cells (minus, mature red blood cells) on one (10×) high power field (HPF). […]
Samples were collected on different days post-TBI up to day 30. […] Megakaryocytes were evaluated by averaging the number of cells per 10 (40×) high power fields (HPFs). […]

The test system of another data set is mice surviving TBI. Nature of the data set: Long-term blood cells, bone marrow and kidney staining in TBI survivors (Example 5). In kind it is in vivo, mouse. The procedure: Methods: During the above Experiment 4, four studies were performed as follows:
Study A: A subset of the animals were sacrificed at 1, 6, and 12 months. Blood was collected and blood cells counted, and femurs were collected, bone marrow isolated and cultured to analyze for colony forming units;
Study B: A subset of the animals were sacrificed at 1 and 6 months. Sterna were collected from these animals, fixed, sectioned, stained with H&E (Hematoxylin and eosin), and megakaryocytes counted;
Study C: A subset of the animals were sacrificed at 1 and 6 months. Kidneys were collected from these animals, fixed, sectioned, stained with β-Catenin or E-cadherin: and
Study D: A subset of the animals were sacrificed at 1 and 6 months. Kidneys were collected from these animals, fixed, sectioned, stained with β-galactosidase, a marker of senescence.

The mark [2] stands for this setting: 1 and 6 months post TBI (FIG. 25).

Square brackets hold non-standard residues; d marks the D form. * marks the point of attachment. 2Nal = N[C@@H](Cc1ccc2ccccc2c1)C(=O)O; Propionyl = CCC(=O)*; Sar = CNCC(=O)O Where only a bound is given, the exact number is not on record here.

On to “methoxypolyethyleneglycol20000-propionyl-L-Isoleucyl-L-Glutamyl-Glycyl-L-Prolyl-L-Threonyl-L-Leucyl-L-Arginyl-L-Glutaminyl-L-2-Naphthylalanyl-L-Leucyl-L-Alanyl-L-Alanyl-L-Arginyl-Sarcosyl-Ne-(methoxypolyethyleneglycol20000-propionyl-L-Isoleucyl-L-Glutamyl-Glycyl-L-Prolyl-L-Threonyl-L-Leucyl-L-Arginyl-L-Glutaminyl-L-2-Naphthylalanyl-L-Leucyl-L-Alanyl-L-Alanyl-L-Arginyl-Sarcosyl-)-Lysinamide ({mPEG 20 kDa-Propionyl}-IEGPTLRQ[2Nal]LAAR[Sar]K-NH2; also: dimer: second identical mPEG-propionyl chain on Lys Nε of C-terminal lysinamide) [RWJ-800088]”, for which the “subjects reporting treatment-emergent adverse events” value in the data set with healthy men (24 of 30 subjects, single IV dose 0.375 to 3 μg/kg) came out at 80%. In the data set on healthy men (Human, dose 3 μg/kg), the “Average of the Maximum Platelet Elevation/Baseline Platelet Counts” value is given as 3.3. Further, the “Dose for 2.0-4x Platelet Elevation in Healthy Subjects” value in the data set on healthy men (Humans) is at least 2.25 µg/kg. The “pharmacodynamics (PD) effect class of the dose (beneficial effects on survival)” value was “**” in the data set with healthy men (Humans, dose 2.25 μg/kg) and “**” in the data set on healthy men (Humans, dose 3 μg/kg). Further, the “Humans Max Platelet Ratio” value amounted to 1.4 ± 0.3 with healthy men (dose 0.375 μg/kg); 1.8 ± 0.4 in the data set with healthy men (dose 0.75 μg/kg); 1.9 ± 0.7 in the data set with healthy men (dose 1.5 μg/kg); 2.1 ± 0.8 in the data set on healthy men (dose 2.25 μg/kg); 3.1 ± 1.1 with healthy men (dose 3 μg/kg). For the same substance, the “enhancement of platelets over background” value in the data set with healthy men (humans, 3 μg/kg (FIG. 19)) is 3.5 fold. The “incidence of adverse events, dose relation” value in the data set on healthy men (single IV dose 0.375 to 3 μg/kg) is recorded as “not dose related”. The tolerability result in the data set with healthy men (single IV doses up to and including 3 μg/kg, healthy men) is “well tolerated”. In addition, the Effects result in the data set with Mice, ear vein is on record as “Reduced white cell”. Further, the “megakaryocytes counts in sternal bone marrow” value in data set [1] is reported as “significant recovery”. Moreover, the “E-cadherin expression in kidney vs vehicle” value in the data set with mice surviving TBI (setting [2]) was “higher”. Further, the “β-Catenin expression in kidney” value in the data set on mice surviving TBI (setting [2]) is reported as “decreases β-Catenin expression”. The “β-galactosidase staining in kidney (marker of senescence)” value in the data set with mice surviving TBI (1 and 6 months post TBI (FIG. 26, 27)) is “protects from cellular senescence”. Further, in the data set with mice surviving TBI (1 and 6 months post irradiation), the “megakaryocytes in sterna vs vehicle (saline)” value is “significantly higher numbers of megakaryocytes”. Further, in the data set on mice surviving TBI (6 months and 12 months post TBI), the “blood cell types (white blood cells, lymphocytes, neutrophils, platelets, red blood cells) vs vehicle” value is recorded as “increased in number”. Further, the “colony forming units in isolated bone marrow vs vehicle” value in the data set with mice surviving TBI (6 months post TBI (FIG. 23)) is “more colony forming units”.
